Measurements published in US20250206761A1, “HALOINDOLE MACROCYCLIC COMPOUNDS FOR THE TREATMENT OF CANCER” (Hoffmann-La Roche Inc., priority 2022, published 2025).
pIC50: −log10 of the molar value.

Key:
[1] = tested on: phosphorylation of ERK, KRAS G12V in SW620; experiment: pERK inhibition assay, KRAS G12V; assay type: cell-based, human; conditions: Homo sapiens, SW-620, SW620, 4 hours
How it was run: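 4 h compound treatment (0.5% DMSO final) of overnight-plated cells; formaldehyde fix, cold MeOH permeabilization, BSA block. Anti-pERK primary overnight at 4 °C, HRP anti-rabbit secondary, TMB readout at OD450. IC50 via 4-parameter sigmoidal model.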

[2] = molecular target: KRAS G12C-BRAF complex (Homo sapiens (Human), UniProt P01116+P62937, G12C); experiment: KRAS G12C-BRAF NanoBit assay; assay type: cell-based; conditions: HEK293 cells, 3 hours of incubation
How it was run: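 Stable HEK293 pool co-expressing SmBit-KRAS G12C and BRAF RBD-LgBit; 10,000 cells/well incubated 3 h with compound, 16-point 3-fold dilution from 30 μM final. Live-cell Nano-Glo substrate added, luminescence read at 20 min; disruption seen as luminescence decrease vs DMSO.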

[3] = tested on: NCI-H358 (ATCC-CRL5807) cells; experiment: Cell viability assay, G12C (NCI-H358); assay type: cell-based, human; conditions: Homo sapiens; KRAS cell viability, NCI-H358, 72 hrs, Cell Counting Kit-8
How it was run: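 72-hr compound treatment, 0.5% DMSO final; NCI-H358 seeded 5,000 cells/well, AGS and SW620 2,000 cells/well. Endpoint: CCK-8, 2-hr development, OD450 minus OD650.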

[4] = molecular target: KRAS G12V binding to BRAF (Homo sapiens (Human), UniProt P01116+P62937, G12V); experiment: KRAS-BRAF with CYPA (500 nM) interaction assay (TR-FRET), G12V; assay type: biochemical
How it was run: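 A TR-FRET assay measured how compound, in the presence of CYPA, disrupts binding of GMPPNP-loaded 6His-KRAS G12V to BRAF. The buffer contained 25 mM HEPES PH=7.4, 0.002% Tween20, 0.1% BSA, 100 mM NaCl, 5 mM MgCl2 and 10 μM GMPPNP. Compounds ran as a 16-point 3-fold dilution series from 10 μM for 3 hours.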

Sequence of KRAS G12V binding to BRAF (P01116-2 other isoform, or with tags, fused parts or gaps G12V): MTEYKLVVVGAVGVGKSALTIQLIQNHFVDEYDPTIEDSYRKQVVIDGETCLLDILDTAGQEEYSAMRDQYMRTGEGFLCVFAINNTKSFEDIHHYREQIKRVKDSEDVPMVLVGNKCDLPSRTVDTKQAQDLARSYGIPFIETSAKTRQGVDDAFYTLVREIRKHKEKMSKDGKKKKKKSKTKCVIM
Sequence of KRAS G12V binding to BRAF (P62937 whole entry): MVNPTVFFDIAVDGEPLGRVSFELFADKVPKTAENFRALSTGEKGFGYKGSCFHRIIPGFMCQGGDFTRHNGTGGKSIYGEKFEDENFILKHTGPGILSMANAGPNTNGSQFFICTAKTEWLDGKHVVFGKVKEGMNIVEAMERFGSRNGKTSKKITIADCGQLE
Sequence of KRAS G12C-BRAF complex (P01116-2 other isoform, or with tags, fused parts or gaps G12C): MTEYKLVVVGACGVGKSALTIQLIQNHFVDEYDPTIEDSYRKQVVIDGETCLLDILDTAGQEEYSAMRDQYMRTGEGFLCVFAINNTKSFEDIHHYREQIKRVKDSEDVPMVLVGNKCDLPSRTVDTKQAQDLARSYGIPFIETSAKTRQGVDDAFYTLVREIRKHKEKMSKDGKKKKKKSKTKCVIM
Sequence of KRAS G12C-BRAF complex (P62937 whole entry): as the sequence (P62937 whole entry) above

Compound	pIC50 [1]	pIC50 [2]	pIC50 [3]	pIC50 [4]
CO[C@@H](C)c1ncc(N2CCN(C)CC2)cc1-c1c2c3cc(c(F)cc3n1CC(F)(F)F)-c1cc(O)cc(c1)C[C@H](NC(=O)[C@H](C(C)C)N(C)C(=O)[C@H]1CCN(C(=O)[C@H](F)Cl)C1)C(=O)N1CCC[C@H](N1)C(=O)OCC(C)(C)C2 (atropisomer, axis not shown; (M)) [Example 8, (3S)-1-[(2R)-2-chloro-2-fluoro-acetyl]-N-[(1S)-1-[[(8S,14S)-25-fluoro-4-hydroxy-(21M)-21-[2-[(1S)-1-methoxyethyl]-5-(4-methylpiperazin-1-yl)-3-pyridyl]-18,18-dimethyl-9,15-dioxo-22-(2,2,2-trifluoroethyl)-16-oxa-10,22,28-triazapentacyclo[18.5.2.1^2,6.1^10,14.0^23,27]nonacosa-1(26),2,4,6(29),20,23(27),24-heptaen-8-yl]carbamoyl]-2-methyl-propyl]-N-methyl-pyrrolidine-3-carboxamide]	6.90	7.37	8.52	8.00
CCn1c(-c2cc(N3CCOCC3)cnc2[C@H](C)OC)c2c3cc(c(F)cc31)-c1csc(n1)C[C@H](NC(=O)[C@H](C(C)C)N1CC[C@@]3(CCN(C(=O)[C@H](F)Cl)C3)C1=O)C(=O)N1CCC[C@H](N1)C(=O)OCC(C)(C)C2 (atropisomer, axis not shown; (M)) [Example 53, (2S)-2-[(5R)-7-[(2R)-2-chloro-2-fluoro-acetyl]-1-oxo-2,7-diazaspiro[4.4]nonan-2-yl]-N-[(7S,13S)-21-ethyl-24-fluoro-(20M)-20-[2-[(1S)-1-methoxyethyl]-5-morpholino-3-pyridyl]-17,17-dimethyl-8,14-dioxo-15-oxa-4-thia-9,21,27,28-tetrazapentacyclo[17.5.2.1^2,5.1^9,13.0^22,26]octacosa-1(25),2,5(28),19,22(26),23-hexaen-7-yl]-3-methyl-butanamide]	7.21	7.77	> 9.00	< 5.00
CO[C@@H](C)c1ncc(N2CCN(C)CC2)cc1-c1c2c3cc(c(F)cc3n1CC(F)(F)F)-c1csc(n1)C[C@H](NC(=O)[C@H](C(C)C)N1CCC[C@]3(CCN(C(=O)[C@H](F)Cl)C3)C1=O)C(=O)N1CCC[C@H](N1)C(=O)OCC(C)(C)C2 (single isomer, unassigned) [Example 18]	7.74	7.92	9.00	5.48
CO[C@@H](C)c1ncc(N2CCN(C)CC2)cc1-c1c2c3cc(c(F)cc3n1CC(F)(F)F)-c1csc(n1)C[C@H](NC(=O)[C@H](C(C)C)N(C)C(=O)C1(F)CCN(C(=O)[C@H](F)Cl)CC1)C(=O)N1CCC[C@H](N1)C(=O)OCC(C)(C)C2 (atropisomer, axis not shown; (M)) [Example 10, 1-[(2R)-2-chloro-2-fluoro-acetyl]-4-fluoro-N-[(1S)-1-[[(7S,13S)-24-fluoro-(20M)-20-[2-[(1S)-1-methoxyethyl]-5-(4-methylpiperazin-1-yl)-3-pyridyl]-17,17-dimethyl-8,14-dioxo-21-(2,2,2-trifluoroethyl)-15-oxa-4-thia-9,21,27,28-tetrazapentacyclo[17.5.2.1^2,5.1^9,13.0^22,26]octacosa-1(25),2,5(28),19,22(26),23-hexaen-7-yl]carbamoyl]-2-methyl-propyl]-N-methyl-piperidine-4-carboxamide]	8.22	8.40	> 9.00	6.87
